# What was measured:
# purified HLA DRB1*0404 = biological target: T1, purified HLA DRB1*0404 (Homo sapiens, UniProt P01903+P01911, A100R/A169T/F76Y/I96L/K127E/L162R/M171V/N62H/P40V/Q125Y/R42H/S133A/S149N/S66Y/V209L/W38E); assay: HLA-DR radioligand binding inhibition assay, DRB1*0404; conditions: IC50 nM purified HLA DRB1 *0404, purified HLA DRB1*0404
# T1 construct: purified from EBV transformed homozygous cell lines or single MHC allele transfected 721.221, C1R, or fibroblast lines; made in house
# Summary of the method: (§1)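 The probe, 1-10 nM radiolabeled peptide, was incubated with 1 μM to 1 nM HLA-DR for 2 days in the presence of protease inhibitors.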
# purified HLA DRB1*0405 = biological target: T2, purified HLA DRB1*0405 (Homo sapiens, UniProt P01903+P01911, A100R/A169T/D86S/F76Y/I96L/K127E/L162R/M171V/N62H/P40V/Q125Y/R42H/S133A/S149N/S66Y/V115G/V209L/W38E); assay: HLA-DR radioligand binding inhibition assay, DRB1*0405; conditions: IC50 nM purified HLA DRB1 *0405, purified HLA DRB1*0405
# T2 construct: purified from EBV transformed homozygous cell lines or single MHC allele transfected 721.221, C1R, or fibroblast lines; made in house
# Summary of the method: as §1
# purified HLA DRB1*0701 = biological target: T3, purified HLA DRB1*0701 (Homo sapiens, UniProt P01903+P01911, A100R/A102G/A103Q/D57E/D86V/E43K/F76Y/K127E/L162R/M171V/P40G/Q125H/Q99D/R33Q/R42Y/R54Q/S133A/S66F/T210M/V115G/Y107V/Y59L/Y89S); assay: HLA-DR radioligand binding inhibition assay, DRB1*0701; conditions: IC50 nM purified HLA DRB1 *0701, purified HLA DRB1*0701
# T3 construct: purified from EBV transformed homozygous cell lines or single MHC allele transfected 721.221, C1R, or fibroblast lines; made in house
# Summary of the method: as §1
# purified HLA DRB1*0802 = biological target: T4, purified HLA DRB1*0802 (Homo sapiens, UniProt P01903+P01911, A100R/A103L/A169T/F76Y/H45Y/I96F/K41T/L162R/M171V/P40S/Q125H/Q178H/Q39Y/Q99D/R218S/R42G/S66Y/V115G/W38E); assay: HLA-DR radioligand binding inhibition assay, DRB1*0802; conditions: IC50 nM purified HLA DRB1 *0802, purified HLA DRB1*0802
# T4 construct: purified from EBV transformed homozygous cell lines or single MHC allele transfected 721.221, C1R, or fibroblast lines; made in house
# Experimental: (§2) Instead, wells of an opaque white 96-well Optiplate (Packard) are coated with 3 μg (100 μl@ 30 μg/ml) of HLA-specific antibody (Ab) that “capture” complexes of radiolabeled MHC and unlabeled peptide transferred from the molecular binding assay plate in 100 μl of 0.05% NP40/PBS. After a 3-hour incubation period, the supernatant is decanted and scintillation fluid (Microscint 20) added. Captured complexes are then measured on a microplate scintillation and luminescence counter (TopCount NXTTM; Packard).
# (§3) HLA-DR purification. Fifteen distinct HLA-DR molecules were used in quantitative assays to measure the binding of peptides to solubilized HLA-DR molecules. […] Briefly, columns of inactivated Sepharose CL4B and Protein A Sepharose were used as pre-columns. HLA-DR molecules were captured by passage of lysates over LB3.1 monoclonal antibody (anti-HLA-DRA) columns. Antibody columns were washed with 10 mM Tris-HCL, pH8.0 with 1% (v/v) NP-40, followed by PBS containing 0.4% (w/v) n-octylglucoside. […] The pH was reduced to 8.0 and the eluates were concentrated by centrifugation in Centriprep 30 concentrators at 2000 rpm (Amicon, Beverly, Mass.).
# (§4) Briefly, 1-10 nM of radiolabeled peptide was co-incubated for 2 days at either room temperature or 37° C. with 1 μM to 1 nM purified HLA-DR molecules in the presence of a cocktail of protease inhibitors. Assays were performed at various pH conditions, ranging from pH 4 to pH 7. […] After incubation, the percentage of HLA-DR-bound radioactivity is determined by capturing HLA-DR/peptide complexes on Optiplates (Packard Instruments, Meriden, Conn.) coated with the LB3.1 antibody and determining bound counts per minute using the TopCount microscintillation counter (Packard Instruments). […] Competitor peptides are tested in 2-4 complete, independent experiments, at concentrations ranging from […].
# purified HLA DRB1*0901 = biological target: T5, purified HLA DRB1*0901 (Homo sapiens, UniProt P01903+P01911, A100R/A103E/D57H/D86V/F55Y/F60I/F76Y/I96F/K127E/L162R/M171V/P40D/Q125H/Q99R/R33Q/R42F/S133A/S66N/T210M/V115G/W38K/Y107V/Y59G/Y89S); assay: HLA-DR radioligand binding inhibition assay, DRB1*0901; conditions: IC50 nM purified HLA DRB1 *0901, purified HLA DRB1*0901
# T5 construct: purified from EBV transformed homozygous cell lines or single MHC allele transfected 721.221, C1R, or fibroblast lines; made in house
# Experimental: as §2
# HLA-DR purification. Fifteen distinct HLA-DR molecules were used in quantitative assays to measure the binding of peptides to solubilized HLA-DR molecules. […] Briefly, columns of inactivated Sepharose CL4B and Protein A Sepharose were used as pre-columns. HLA-DR molecules were captured by passage of lysates over LB3.1 monoclonal antibody (anti-HLA-DRA) columns. Antibody columns were washed with 10 mM Tris-HCL, pH8.0 with 1% (v/v) NP-40, followed by PBS containing 0.4% (w/v) n-octylglucoside.
# Briefly, 1-10 nM of radiolabeled peptide was co-incubated for 2 days at either room temperature or 37° C. with 1 μM to 1 nM purified HLA-DR molecules in the presence of a cocktail of protease inhibitors. Assays were performed at various pH conditions, ranging from pH 4 to pH 7. […] After incubation, the percentage of HLA-DR-bound radioactivity is determined by capturing HLA-DR/peptide complexes on Optiplates (Packard Instruments, Meriden, Conn.) coated with the LB3.1 antibody and determining bound counts per minute using the TopCount microscintillation counter (Packard Instruments).
# purified HLA DRB1*1101 = biological target: T6, purified HLA DRB1*1101 (Homo sapiens, UniProt P01903+P01911, A100R/A169T/A87E/I96F/K41T/L162R/M171V/P40S/Q125H/Q178H/Q39Y/Q99D/R42S/S66Y/T262R/V115G/W38E); assay: HLA-DR radioligand binding inhibition assay, DRB1*1101; conditions: IC50 nM purified HLA DRB1 *1101, purified HLA DRB1*1101
# T6 construct: purified from EBV transformed homozygous cell lines or single MHC allele transfected 721.221, C1R, or fibroblast lines; made in house
# Summary of the method: as §1
# purified HLA DRB1*1201 = biological target: T7, purified HLA DRB1*1201 (Homo sapiens, UniProt P01903+P01911, A100R/A169T/D57E/D86V/F55L/H45Y/K41T/L162R/M171V/P40S/Q125H/Q178H/Q39Y/Q99D/R42G/S66L/T262R/V114A/V67L/W38E/Y59H/Y61H/Y89S); assay: HLA-DR radioligand binding inhibition assay, DRB1*1201
# T7 construct: purified from EBV transformed homozygous cell lines or single MHC allele transfected 721.221, C1R, or fibroblast lines; made in house
# Experimental: as §2, §3, §4
# purified HLA DRB1*1302 = biological target: T8, purified HLA DRB1*1302 (Homo sapiens, UniProt P01903+P01911, A100E/A169T/K41T/L162R/M171V/P40S/Q125H/Q178H/Q39Y/Q99D/R42S/S66N/T262R/V115G/W38E/Y61H); assay: HLA-DR radioligand binding inhibition assay, DRB1*1302
# T8 construct: purified from EBV transformed homozygous cell lines or single MHC allele transfected 721.221, C1R, or fibroblast lines; made in house
# Summary of the method: as §1
# purified HLA DRB3*0101 = biological target: T9, purified HLA DRB3*0101 (Homo sapiens, UniProt P01903+P79483); assay: HLA-DR radioligand binding inhibition assay, DRB3*0101; conditions: IC50 nM purified HLA DRB3 *0101, purified HLA DRB3*0101
# T9 construct: purified from EBV transformed homozygous cell lines or single MHC allele transfected 721.221, C1R, or fibroblast lines; made in house
# Experimental: as §2, §3, §4
# purified HLA DRB5*0101 = biological target: T10, purified HLA DRB5*0101 (Homo sapiens, UniProt P01903+Q30154); assay: HLA-DR radioligand binding inhibition assay, DRB5*0101; conditions: IC50 nM purified HLA DRB5 *0101, purified HLA DRB5*0101
# T10 construct: purified from EBV transformed homozygous cell lines or single MHC allele transfected 721.221, C1R, or fibroblast lines; made in house
# Summary of the method: as §1
# T6 sequence (P01903 26-254, other chains not shown): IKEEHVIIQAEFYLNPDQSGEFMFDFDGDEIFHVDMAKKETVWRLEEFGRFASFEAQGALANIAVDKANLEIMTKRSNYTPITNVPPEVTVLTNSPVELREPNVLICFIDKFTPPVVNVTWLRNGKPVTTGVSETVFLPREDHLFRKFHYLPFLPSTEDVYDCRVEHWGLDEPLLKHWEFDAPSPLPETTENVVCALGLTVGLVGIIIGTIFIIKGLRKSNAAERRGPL
Structure (SMILES),IC50 (purified HLA DRB1*0404) [nM],IC50 (purified HLA DRB1*0405) [nM],IC50 (purified HLA DRB1*0701) [nM],IC50 (purified HLA DRB1*0802) [nM],IC50 (purified HLA DRB1*0901) [nM],IC50 (purified HLA DRB1*1101) [nM],IC50 (purified HLA DRB1*1201) [nM],IC50 (purified HLA DRB1*1302) [nM],IC50 (purified HLA DRB3*0101) [nM],IC50 (purified HLA DRB5*0101) [nM]
CC[C@H](C)[C@H](NC(=O)[C@H](CS)NC(=O)[C@H](CC(C)C)NC(=O)[C@H](CCCCN)NC(=O)[C@H](CCC(=O)O)NC(=O)[C@H](C)NC(=O)[C@@H](NC(=O)[C@H](CC(C)C)NC(=O)[C@@H]1CCCN1C(=O)[C@@H](NC(=O)[C@@H](N)[C@@H](C)O)[C@@H](C)CC)[C@@H](C)O)C(=O)N[C@@H](Cc1ccc(O)cc1)C(=O)N[C@H](C(=O)N[C@@H](CC(=O)O)C(=O)N[C@@H](CC(N)=O)C(=O)O)[C@@H](C)O [Peptide 1622.01],> 20000,> 20000,> 20000,> 20000,> 20000,> 20000,> 20000,> 20000,> 20000,
CC[C@H](C)[C@H](NC(=O)[C@@H](NC(=O)[C@H](Cc1c[nH]cn1)NC(=O)[C@@H](N)CC(C)C)C(C)C)C(=O)N[C@@H](CCCCN)C(=O)N[C@@H](CO)C(=O)N[C@@H](CC(=O)O)C(=O)N[C@@H](CC(C)C)C(=O)N[C@H](C(=O)N[C@@H](CC(N)=O)C(=O)N[C@@H](CCC(=O)O)C(=O)N[C@@H](CCC(=O)O)C(=O)N[C@@H](C)C(=O)N[C@H](C(=O)NCC(=O)O)[C@@H](C)O)C(C)C [Peptide 9019.0005],,37,3890,> 20000,> 20000,,> 20000,,> 20000,> 20000

# Reference: patent US20140377340A1, “HLA-DR BINDING PEPTIDES AND THEIR USES” (priority 2007, published 2014)
